For the experiment, the system named is human peripheral blood T lymphocytes / cytotoxic macrophages. It counts as cell-based. From the text:
Another embodiment of the method for screening a compound which can prevent, mitigate or treat renal glomerular lesions, lesions of pancreatic islets of Langerhans or epidermal lesions include a method for screening a compound in the presence of which a number of produced cytotoxic macrophages is decreased, comprising the steps of (i) inducing cytotoxic macrophages by cultivating human peripheral blood mononuclear cells in RPMI 1640 medium in the presence of lipopolysaccharide and human AB type serum; (ii) at the same time, inducing unfractionated T lymphocytes by cultivating human peripheral blood unfractionated T lymphocytes with or without lipopolysaccharide in the presence of the test compound; (iii) bringing the cytotoxic macrophages obtained in (i) into contact with monolayered autologous erythrocytes in the presence of the unfractionated T lymphocytes obtained in (ii), and measuring a number of produced cytotoxic macrophages; and (iv) comparing with the number of generated cytotoxic macrophages in the absence of the test compound (for convenience, referred to as screening method C).
(a) Induction of cytotoxic macrophages is described below. To 2×10^6PBMC floated on RPMI1640 medium containing human normal serum of type AB, 2 mM of L-glutamine and 5 μg/mL of gentamicin, LPS is added so as to make a concentration 80 μg/mL, and the PBMC is cultivated for 6 days at 37° C. under 5% CO2-95% air to induce cytotoxic macrophages. The PBMC is obtained similarly as in the screening method A. The induced cytotoxic macrophages are recovered from the medium. In the recovering, a known method may be used, including a method of collecting adhered materials with a rubber-policeman (rubber spatula). Then, the recovered cytotoxic macrophages may be washed. In washing, a Hanks solution with about 5 μg/mL of gentamicin is preferably used.
(b) Induction of unfractionated T lymphocytes is described below. First, human peripheral blood unfractionated T lymphocytes is separated as described below. As described in the screening method A, to a PBMC fraction separated by a specific gravity centrifugal method was added sheep erythrocytes treated with neuraminidase and reacted for 20 minutes at 37° C. This solution is gently added to a tube in which Percolls of discontinuous specific gravities are layered, and centrifuged at 400×g for 20 minutes at room temperature. In the layered Percolls of discontinuous specific gravities, fractions of rosetted T lymphocytes and monocytes floating on a layer of not less than d=1.091 are collected respectively. To the fraction of rosetted T lymphocytes is added ammonium chloride to hemolyze the sheep erythrocyte and a fraction of T lymphocytes is obtained. The fraction of monocytes obtained at the same time is washed. […]

Molecules are shown by their SMILES. Read-outs that look alike come from different tables or passages of the source.

For `O=C1CC[C@@](Sc2ccc(Cl)cc2)(C(=O)OCc2ccccc2)O1` (stereo in doubt) [compound (III-1), 2-(4-chlorophenyl)thio-5-oxo-2-tetrahydrofurancarboxylic acid benzyl ester], the “induction of regulatory CD2^−CD4^+ T lymphocytes (in words)” value was “induces regulatory CD2^−CD4^+ T lymphocytes”. Further, under “T lymphocytes treated with 0.1 μg/ml of compound”, the “Inhibition rate (%) of SPFC positive cells versus T lymphocytes treated with solvent” value (from here on “Inhibition rate (%)”) was found to be 69.2%. Further, the “Inhibition rate (%)” value (T lymphocytes treated with 1 μg/ml of compound) turned out to be 53.8%. Moreover, the “Inhibition rate (%)” value (T lymphocytes treated with 10 μg/ml of compound) amounted to 92.3%.

Source of the values: patent publication US20060014709A1, “Drug or cosmetic” (priority 2002, published 2006).
